Reference: ChEMBL document CHEMBL1201862, “PubChem BioAssay data set” (2004)
“And” between values parts separate entries of the source, which are not always exact repeats. Equal entries are not always repeated.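 Five compound concentrations were applied to cells in 96-well plates for 48 hours; endpoints were derived by simple linear interpolation of the resulting dose-response curve. GI50 marks 50% less growth.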 The source made the active and inactive calls. Cut-off read from the data, not from the text of the source: active = GI50 up to about 1.1 µM and inactive = higher. Where a SMILES comes first, the peptide text is derived from it. The star is where a group is joined. Boc = CC(C)(C)OC(=O)*; OSu = O=C1CCC(=O)N1O*

Tests used:
Assay in all cases: NCI anticancer screen, dose series, 48 h
[1] = system: U-251
[2] = system: NCI-H522
[3] = system: SK-MEL-2
[4] = system: SF-268
[5] = system: COLO 205
[6] = system: DU-145
[7] = system: CAKI-1
[8] = system: SW-620
[9] = system: OVCAR-4
[10] = system: OVCAR-8
[11] = system: PC-3
[12] = system: Malme-3M
[13] = system: HOP-92
[14] = system: RXF 393
[15] = system: SK-MEL-5
[16] = system: M14
[17] = system: ACHN
[18] = system: MOLT-4
[19] = system: UACC-62
[20] = system: LOX IMVI

Measured: GI50

O=C(NCCC1CN(C(=O)OCc2ccccc2)c2ccccc21)OCc1ccccc1 (stereo unspecified)
inactive: [1] > 100 µM | [2] 90.6 µM | [3] > 100 µM | [4] > 100 µM | [5] > 100 µM | [6] > 100 µM | [7] > 100 µM | [8] > 100 µM | [9] > 100 µM | [10] > 100 µM | [11] > 100 µM | [12] > 100 µM | [13] > 100 µM | [14] > 100 µM | [15] > 100 µM | [16] > 100 µM | [17] > 100 µM | [18] > 100 µM | [19] > 100 µM

O=C(/C=C/c1ccc(Cl)c(Cl)c1)CCN1CCN(CCC(=O)/C=C/c2ccc(Cl)c(Cl)c2)CC1
inactive: [1] 13.9 µM | [2] 8.13 µM | [3] 26.7 µM | [4] 35.4 µM | [5] 21.8 µM | [6] 23.8 µM | [7] 15.6 µM | [8] 18.2 µM | [9] 15.7 µM | [10] 33.7 µM | [11] 20.1 µM | [13] 22.8 µM | [14] 20.2 µM | [15] 19.3 µM | [16] 17.8 µM | [17] 16.9 µM | [18] 22.3 µM | [19] 19.6 µM | [20] 13 µM

CN(C)Cc1cc(/N=N/c2ccc(Cl)cc2)cc(CN(C)C)c1O
inactive: [1] 7.24 µM | [2] 1.77 µM | [3] 12.9 µM | [4] 10.8 µM | [5] 3.99 µM | [6] 16.9 µM | [7] 12.1 µM | [8] 8.09 µM | [10] 3.75 µM | [11] 5.41 µM | [12] 14.7 µM | [13] 2.45 µM | [14] 9.44 µM | [15] 8.79 µM | [16] 14.5 µM | [17] 6.43 µM | [18] 2.75 µM | [19] 13.9 µM | [20] 3.1 µM

CCCC(CCC(=O)O)(CCC(=O)O)[N+](=O)[O-]
inactive: [1] > 100 µM | [2] > 100 µM | [3] > 100 µM | [4] > 100 µM | [5] > 100 µM | [6] > 100 µM | [7] > 100 µM | [8] > 100 µM | [10] > 100 µM | [11] > 100 µM | [12] > 100 µM | [13] > 100 µM | [14] > 100 µM | [15] > 100 µM | [16] > 100 µM | [17] > 100 µM | [18] > 100 µM | [19] > 100 µM

CC(NC(=O)C(NC(=O)OC(C)(C)C)C(C)C)C(=O)NCC(=O)ON1C(=O)CCC1=O (stereo not drawn) (Boc-Val-Ala-Gly-OSu; configuration not given here)
inactive: [1] > 100 µM | [2] 63.4 µM | [3] > 100 µM | [4] > 100 µM | [5] > 100 µM | [6] > 100 µM | [7] > 100 µM | [8] > 100 µM | [10] > 100 µM | [11] > 100 µM | [12] > 100 µM | [13] 22.8 µM | [14] > 100 µM | [15] > 100 µM | [16] 88.1 µM | [17] > 100 µM | [18] 45.9 µM | [19] > 100 µM

CNc1nc(=O)c(C#N)c(-c2ccc(C)cc2)s1
inactive: [1] > 100 µM | [2] 59.3 µM | [3] > 100 µM | [5] > 100 µM | [6] > 100 µM | [7] 35.6 µM | [8] > 100 µM | [9] > 100 µM | [10] > 100 µM | [11] > 100 µM | [12] > 100 µM | [13] > 100 µM | [14] > 100 µM | [15] > 100 µM | [16] > 100 µM | [17] > 100 µM | [18] > 100 µM | [19] > 100 µM | [20] > 100 µM

COc1ccc(/C=C2/N/C(=N\N=C/C(O)C(O)C(O)C(O)CO)NC2=O)cc1 (stereo unspecified)
inactive: [1] > 100 µM | [2] > 100 µM | [3] > 100 µM | [4] > 100 µM | [5] > 100 µM | [6] > 100 µM | [7] > 100 µM | [8] > 100 µM | [9] 39.9 µM and 39.4 µM | [10] > 100 µM | [11] > 100 µM | [12] > 100 µM | [13] > 100 µM | [14] > 100 µM | [15] > 100 µM | [16] > 100 µM | [17] > 100 µM | [18] > 10 µM | [20] > 100 µM
